# Results published in US20060235076A1, “Medicinal composition for treating infection with drug-resistant staphylococcus aureus” (priority 2003, published 2006).
# Legend:
# [1] = test system: MRSA; experiment: Potentiating effect of galloyl quinic acid derivatives for the antibacterial activity of oxacillin (agar plate dilution method, MIC); format: cell-based, Staphylococcus aureus
# Protocol: According to the agar plate dilution method defined by Japan Society of Chemotherapy, MIC (Minimum inhibitory concentration) was determined. CAMHA was prepared by adding 50 mg/l of Ca-ion, 25 mg/l of Mg-ion, and 2% of NaCl to Mueller-Hinton II Agar (MHA), and it was used as a medium for use in the measurement of sensitivity. The bacterial liquid was incubated at 37° C. overnight and diluted to 10^6 CFU/ml with saline.
# It was confirmed that the known substances shown below were contained in “Tara” and their MICs were determined as described in example 2 with respect to the effects of the combination use with oxacillin
# [2] = test system: MRSA COL and MRSA Strain No. 5; experiment: Potentiating effect of various gallates for antibacterial activity of oxacillin (MIC by broth microdilution method and FIC); format: cell-based, Staphylococcus aureus; conditions: for FIC value: combination with oxacillin
# Protocol: According to the broth microdilution method defined by Japan Society of Chemotherapy, MIC was determined. CAMHA was prepared by adding 50 mg/l of Ca-ion, 25 mg/l of Mg-ion, and 2% of NaCl to MHB (Mueller-Hinton Broth), and it was used as a medium for use in the measurement of sensitivity. In 96-well microplates 100 μl of the medium for use in the measurement of sensitivity containing drugs was dispensed. The bacterial liquid was incubated at 37° C. overnight, diluted with saline and added to the plate so that the final concentration of the bacteria was 5×10^5 CFU/well. […] FIC (fractional inhibitory concentration) was calculated from the result and the potency of the effect of the combination use was evaluated.
compound,measurement,setting,value
O=C(OC1CC(O)(C(=O)O)CC(O)C1OC(=O)c1cc(O)c(O)c(O)c1)c1cc(O)c(O)c(O)c1 (stereo not drawn) [compound 4],Oxacillin MIC,"[1]; ATCC 6538, with 12.5 μg/ml of compound",<0.5 µg/mL
same,Oxacillin MIC,"[1]; ATCC 6538, with 25 μg/ml of compound",<0.5 µg/mL
same,Oxacillin MIC,"[1]; ATCC 6538, with 50 μg/ml of compound",<0.5 µg/mL
same,Oxacillin MIC,"[1]; MRSA 1, with 12.5 μg/ml of compound",>256 µg/mL
same,Oxacillin MIC,"[1]; MRSA 1, with 25 μg/ml of compound",>256 µg/mL
same,Oxacillin MIC,"[1]; MRSA 1, with 50 μg/ml of compound",>256 µg/mL
same,Oxacillin MIC,"[1]; MRSA 2, with 12.5 μg/ml of compound",>256 µg/mL
same,Oxacillin MIC,"[1]; MRSA 2, with 25 μg/ml of compound",256 µg/mL
same,Oxacillin MIC,"[1]; MRSA 2, with 50 μg/ml of compound",256 µg/mL
same,Oxacillin MIC,"[1]; MRSA 3, with 12.5 μg/ml of compound",256 µg/mL
same,Oxacillin MIC,"[1]; MRSA 3, with 25 μg/ml of compound",256 µg/mL
same,Oxacillin MIC,"[1]; MRSA 3, with 50 μg/ml of compound",128 µg/mL
same,Oxacillin MIC,"[1]; MRSA 4, with 12.5 μg/ml of compound",>256 µg/mL
same,Oxacillin MIC,"[1]; MRSA 4, with 25 μg/ml of compound",>256 µg/mL
same,Oxacillin MIC,"[1]; MRSA 4, with 50 μg/ml of compound",>256 µg/mL
same,Oxacillin MIC,"[1]; MRSA 5, with 12.5 μg/ml of compound",>256 µg/mL
same,Oxacillin MIC,"[1]; MRSA 5, with 25 μg/ml of compound",≅256 μg/ml
same,Oxacillin MIC,"[1]; MRSA 5, with 50 μg/ml of compound",>256 µg/mL
same,Oxacillin MIC,"[1]; MRSA 6, with 12.5 μg/ml of compound",256 µg/mL
same,Oxacillin MIC,"[1]; MRSA 6, with 25 μg/ml of compound",256 µg/mL
same,Oxacillin MIC,"[1]; MRSA 6, with 50 μg/ml of compound",128 µg/mL
same,Oxacillin MIC,"[1]; MRSA 7, with 12.5 μg/ml of compound",>256 µg/mL
same,Oxacillin MIC,"[1]; MRSA 7, with 25 μg/ml of compound",>256 µg/mL
same,Oxacillin MIC,"[1]; MRSA 7, with 50 μg/ml of compound",>256 µg/mL
same,Oxacillin MIC,"[1]; MRSA 8, with 12.5 μg/ml of compound",256 µg/mL
same,Oxacillin MIC,"[1]; MRSA 8, with 25 μg/ml of compound",128 µg/mL
same,Oxacillin MIC,"[1]; MRSA 8, with 50 μg/ml of compound",128 µg/mL
same,Oxacillin MIC,"[1]; MRSA 9, with 12.5 μg/ml of compound",>256 µg/mL
same,Oxacillin MIC,"[1]; MRSA 9, with 25 μg/ml of compound",>256 µg/mL
same,Oxacillin MIC,"[1]; MRSA 9, with 50 μg/ml of compound",>256 µg/mL
same,Oxacillin MIC,"[1]; MRSA 10, with 12.5 μg/ml of compound",128 µg/mL
same,Oxacillin MIC,"[1]; MRSA 10, with 25 μg/ml of compound",128 µg/mL
same,Oxacillin MIC,"[1]; MRSA 10, with 50 μg/ml of compound",128 µg/mL
same,Oxacillin MIC,"[1]; MRSA 12, with 12.5 μg/ml of compound",>256 µg/mL
same,Oxacillin MIC,"[1]; MRSA 12, with 25 μg/ml of compound",>256 µg/mL
same,Oxacillin MIC,"[1]; MRSA 12, with 50 μg/ml of compound",>256 µg/mL
same,Oxacillin MIC,"[1]; MRSA 16, with 12.5 μg/ml of compound",>256 µg/mL
same,Oxacillin MIC,"[1]; MRSA 16, with 25 μg/ml of compound",>256 µg/mL
same,Oxacillin MIC,"[1]; MRSA 16, with 50 μg/ml of compound",>256 µg/mL
same,Oxacillin MIC,"[1]; MRSA 17, with 12.5 μg/ml of compound",256 µg/mL
same,Oxacillin MIC,"[1]; MRSA 17, with 25 μg/ml of compound",256 µg/mL
same,Oxacillin MIC,"[1]; MRSA 17, with 50 μg/ml of compound",256 µg/mL
same,Oxacillin MIC,"[1]; MRSA 18, with 12.5 μg/ml of compound",>256 µg/mL
same,Oxacillin MIC,"[1]; MRSA 18, with 25 μg/ml of compound",>256 µg/mL
same,Oxacillin MIC,"[1]; MRSA 18, with 50 μg/ml of compound",>256 µg/mL
same,Oxacillin MIC,"[1]; MRSA 20, with 12.5 μg/ml of compound",32 µg/mL
same,Oxacillin MIC,"[1]; MRSA 20, with 25 μg/ml of compound",16 µg/mL
same,Oxacillin MIC,"[1]; MRSA 20, with 50 μg/ml of compound",16 µg/mL
same,Oxacillin MIC,"[1]; MRSA 21, with 12.5 μg/ml of compound",128 µg/mL
same,Oxacillin MIC,"[1]; MRSA 21, with 25 μg/ml of compound",128 µg/mL
same,Oxacillin MIC,"[1]; MRSA 21, with 50 μg/ml of compound",64 µg/mL
same,Oxacillin MIC,"[1]; MRSA 22, with 12.5 μg/ml of compound",64 µg/mL
same,Oxacillin MIC,"[1]; MRSA 22, with 25 μg/ml of compound",64 µg/mL
same,Oxacillin MIC,"[1]; MRSA 22, with 50 μg/ml of compound",64 µg/mL
same,Oxacillin MIC,"[1]; MRSA COL, with 12.5 μg/ml of compound",>256 µg/mL
same,Oxacillin MIC,"[1]; MRSA COL, with 25 μg/ml of compound",>256 µg/mL
same,Oxacillin MIC,"[1]; MRSA COL, with 50 μg/ml of compound",>256 µg/mL
same,Oxacillin MIC,"[1]; MSSA 1003, with 12.5 μg/ml of compound",<0.5 µg/mL
same,Oxacillin MIC,"[1]; MSSA 1003, with 25 μg/ml of compound",<0.5 µg/mL
same,Oxacillin MIC,"[1]; MSSA 1003, with 50 μg/ml of compound",<0.5 µg/mL
same,Oxacillin MIC,"[1]; MSSA 1010, with 12.5 μg/ml of compound",<0.5 µg/mL
same,Oxacillin MIC,"[1]; MSSA 1010, with 25 μg/ml of compound",<0.5 µg/mL
same,Oxacillin MIC,"[1]; MSSA 1010, with 50 μg/ml of compound",<0.5 µg/mL
same,Oxacillin MIC,"[1]; MSSA 1032, with 12.5 μg/ml of compound",<0.5 µg/mL
same,Oxacillin MIC,"[1]; MSSA 1032, with 25 μg/ml of compound",<0.5 µg/mL
same,Oxacillin MIC,"[1]; MSSA 1032, with 50 μg/ml of compound",<0.5 µg/mL
same,Oxacillin MIC,"[1]; RN4220, with 12.5 μg/ml of compound",<0.5 µg/mL
same,Oxacillin MIC,"[1]; RN4220, with 25 μg/ml of compound",<0.5 µg/mL
same,Oxacillin MIC,"[1]; RN4220, with 50 μg/ml of compound",<0.5 µg/mL
catechin gallate,effect of the combination use with oxacillin by FIC values,[2]; COL Strain and Strain No. 5,most potent
same,FIC value,[2]; MRSA COL,<0.25
same,FIC value,[2]; MRSA Strain No. 5,0.064
